These compounds were tested on P. falciparum 3D7 growth, pLDH absorbance (assay: P. falciparum 3D7 growth inhibition, dose response, strain 3D7 (AID 2305)).
`Cc1ccc(CNC(=O)[C@H](CCCN)Nc2nc(Nc3ccccc3)ncc2C)cc1` gave an IC50 of 1.53 µM.
`COc1ccc(Nc2nc(NN=Cc3cc(Br)c(O)cc3O)nc(Nc3ccc([N+](=O)[O-])cc3)n2)cc1` showed an IC50 of 0.9 µM.
With `COC(=O)c1ccc(N2CCN(CCCCNC(=O)c3ccc(NC(=O)c4ccc(Cl)cc4)cc3)CC2)c(OC)c1` the IC50 was 1.3 µM.
With `CC(C)COc1ccc(Cl)cc1Nc1nc(-c2nc3ccccc3[nH]2)cs1` the IC50 was 0.88 µM.
Compound `Cn1c(=O)n(C)c2cc(CNCCNc3ccnc4cc(Cl)ccc34)ccc21` has an IC50 of 0.14 µM.
In the case of `Cc1nc(-c2cccc(C(=O)N(Cc3cncn3Cc3cccc(C(F)(F)F)c3)CC3CC3)c2)cs1`, the IC50 is reported as 0.94 µM.
`Cc1cc(O)c2c3c1C(=O)C=C1C3c3c(c(O)cc(O)c3C(=O)C1(C)C)C2=O` (stereo not drawn) gave an IC50 of 1.68 µM.
With `COc1ccc(N2C(N)=NC(N)=NC2(C)C)cc1OC` the IC50 was 0.31 µM.
In the case of `Cc1cccc(Cn2c(C(N)=O)nn(-c3ccc([N+](=O)[O-])cc3C#N)c2=S)c1`, the IC50 is reported as 0.73 µM.
`CC(C)Oc1ccc(N2CCN(CCCCNC(=O)c3ccc(NC(=O)c4ccc(Cl)cc4)cc3)CC2)c(OC(C)C)c1` showed an IC50 of 0.51 µM.
In the case of `Cc1nnc2c(NC(=O)NC3CCCC3)cc3ccc(-c4cccc(CN5CCN(C)CC5)c4)cc3n12`, the IC50 is reported as 0.92 µM.
For `COc1cc(CC(C)NCC(O)c2cccc(C(F)(F)F)c2)ccc1OCc1ccccc1` (stereo not drawn), the IC50 was 0.82 µM.
In the case of `CC(=O)Nc1ccc(COc2ccc(Nc3ccnc4cc(-c5ccccn5)ccc34)cc2)cc1`, the IC50 is reported as 0.2 µM.
For `CC(Cc1ccc(OCc2ccc(CCN(C)C)cc2)cc1)NCCc1cccc(Cl)c1` (stereo not drawn), the IC50 was 0.77 µM.
`Cn1nccc1C(=O)NCCNCc1cccc(-c2ccc(-c3nc4ccc(C(F)(F)F)cc4[nH]3)cc2)c1` gave an IC50 of 0.12 µM.
`Nc1cccc(CNCc2ccc(-c3cccc(-c4nc5ccc(F)cc5[nH]4)c3)cc2)c1` gave an IC50 of 0.21 µM.
With `O=S(=O)(NCCN1CCCC1)c1ccc(-c2cccc(CNC3Cc4ccccc4C3)c2)cc1` the IC50 was 0.62 µM.
Work on `CCNC(=O)Nc1cccc(-c2ccc(-c3nc4c(C)cccc4[nH]3)s2)c1` yielded an IC50 of 0.77 µM.
In the case of `CSC1=NC(=Nc2c(C)cccc2C)C2(CCC(C(C)(C)C)CC2)N1c1ccc(O)cc1` (stereo not drawn), the IC50 is reported as 0.25 µM.
With `COc1ccc2nccc(N3CCC(SCCNCc4ccc5c(n4)NC(=O)CS5)C3)c2n1` (stereo not drawn) the IC50 was 0.25 µM.
For `CC(C)(C)NCCN(Cc1ccc(-c2ccc(C(F)(F)F)cc2)cc1)C(=O)Cn1c(CCc2cccc(F)c2F)nc(=O)c2ccccc21`, the IC50 was 0.76 µM.
For `O=C(Nc1ccc(C(F)(F)F)cc1)c1ccc(NCCCN2CCCCCC2)c([N+](=O)[O-])c1`, the IC50 was 0.32 µM.
`CCCCN(C)CC#Cc1ccc2[nH]c(C)c(Cl)c(=O)c2c1` was tested, and the IC50 was 0.13 µM.
For `O=C(C=Cc1cc([N+](=O)[O-])ccc1Cl)N1CCC(CCN2CCC(c3c[nH]c4ccccc34)CC2)CC1`, the IC50 was 0.74 µM.
`CC1(C)N=C(N)N=C(N)N1CCc1ccccc1` gave an IC50 of 0.05 µM.
`Cc1noc(NC(=O)c2sc3ccccc3c2O)c1C` gave an IC50 of 0.85 µM.
`Cc1cccc2[nH]c(-c3ccc(-c4cccc(CNCc5ccc(S(C)(=O)=O)cc5)c4)s3)nc12` was tested, and the IC50 was 0.33 µM.
For `COc1cc2ccccc2cc1OCCCN1CCN(CC(c2ccc(F)cc2)N2CCN(C(C)C)CC2)CC1` (stereo not drawn), the IC50 was 0.75 µM.
`CCCN1CC[C@@H](CCCc2ccnc3ccc(O)cc23)[C@@H](CC)C1` showed an IC50 of 0.89 µM.
`CCN(CC)CCOc1ccc(C(O)(C#CC(O)(c2ccc(Br)cc2)c2ccc(OCCN(CC)CC)cc2)c2ccc(Br)cc2)cc1` (stereo not drawn) gave an IC50 of 0.62 µM.
`O=C(Nc1ccc(C(=O)OC[C@@H]2CCCN3CCCC[C@H]23)cc1)c1ccc([N+](=O)[O-])cc1` showed an IC50 of 0.72 µM.
`O=C(Nc1ccccc1)Nc1cccc(-c2cccc(-c3nc4ccc(F)cc4[nH]3)c2)c1` gave an IC50 of 0.18 µM.
In the case of `CCCN(Cc1ccc(OCC)cc1)Cc1cc(=O)c2cc(Cl)ccc2[nH]1`, the IC50 is reported as 1.26 µM.
Work on `CC1CCCCN1CCCNc1nc(NCc2ccccc2)c2ccccc2n1` (stereo not drawn) yielded an IC50 of 0.95 µM.
`COc1ccccc1-c1cccc(Nc2c(Nc3ccc(Cl)cc3)c(=O)c2=O)c1` was tested, and the IC50 was 0.88 µM.
`COc1cc2nc(SCC(C)C)n(CCCn3ccnc3)c(=N)c2cc1OC` gave an IC50 of 0.61 µM.
`CN(C)CCOC(=O)C1(O)CCC2CC1C2(C)C` (stereo not drawn) gave an IC50 of 0.98 µM.
Work on `COc1cc(NC(=O)/C=C/c2ccccc2OC(F)(F)F)cc(OCCN2CCC(O)(c3ccccc3)CC2)c1` yielded an IC50 of 0.29 µM.
`COCCOC(=O)C(=O)c1c(-c2ccccc2)c(-c2ccc(OC)c(OC)c2)c2c3cc(OC)c(OC)cc3ccn12` was tested, and the IC50 was 0.5 µM.
`FC(F)(F)c1ccc2nccc(NN=Cc3cccnc3)c2c1` was tested, and the IC50 was 0.63 µM.
`CC(C)CNCc1ccc(-c2ccc(CN(CCCN3CCN(C)CC3)C(=O)CCC3CCCC3)cc2)cc1` gave an IC50 of 1.06 µM.
Compound `Cc1ccc2c(NN=Cc3cccc([N+](=O)[O-])c3)cc(C)nc2c1` has an IC50 of 0.27 µM.
`COc1ccc(C2=C(Nc3ccc4oc5ccccc5c4c3)c3ccccc3C2=O)cc1` gave an IC50 of 0.83 µM.
In the case of `CCO[C@H]1CN[C@H](C#Cc2cc3c(Nc4ccc(OCc5cccc(F)c5)c(Cl)c4)ncnc3s2)C1`, the IC50 is reported as 0.94 µM.
In the case of `COc1cc(-c2cc(-c3ccc(S(C)(=O)=O)cc3)cnc2N)ccc1O`, the IC50 is reported as 0.1 µM.
`CC(C)C[C@H](NC(=O)c1ccc(OCCN2CCOCC2)cc1)C(=O)N[C@H](/C=N/N(C)C(=O)c1ccccc1)CCc1ccccc1` showed an IC50 of 0.27 µM.
With `CCn1c(-c2nc(-c3ccnc(N4CCN(C)CC4)c3)cnc2N)nc2cc(S(C)(=O)=O)ccc21` the IC50 was 0.81 µM.
In the case of `CC(C)C(C(=O)Nc1ccc(S(=O)(=O)N(C)C)cc1)c1ccc(Cl)cc1` (stereo not drawn), the IC50 is reported as 0.94 µM.
`C#CCOc1ccccc1CN1CCC(N2CCc3cc(NC(=O)c4cc(C)on4)ccc32)C1` (stereo not drawn) showed an IC50 of 0.68 µM.
For `CC(=O)Nc1ccc(NC(=O)c2cc(-c3ccc(C)cc3O)n[nH]2)cc1`, the IC50 was 0.49 µM.
`Cc1cnc(-c2ccc(NC(=O)c3coc4ccc(N5C[C@@H](C)N(C)[C@@H](C)C5)cc34)cc2)o1` gave an IC50 of 0.65 µM.
`CC(=O)Nc1ccc(CN2CCC(CNC(=O)c3cc(-c4cccc(Cl)c4)cs3)C2)cc1` (stereo not drawn) showed an IC50 of 1.12 µM.
With `O=c1c(NCCCN(Cc2ccc(F)cc2)c2ccccn2)c(NCc2ccncc2)c1=O` the IC50 was 0.15 µM.
`Cc1cc(N2CCOCC2)nc2ccc(NC(=O)c3cccc([N+](=O)[O-])c3)cc12` showed an IC50 of 0.89 µM.
Work on `N#Cc1ccccc1C1CCN(C2CCC(Nc3cc(-c4cccnc4)ccn3)CC2)CC1` (stereo not drawn) yielded an IC50 of 0.96 µM.
Work on `COc1ccc(CC2(c3ccc(F)cc3)N=C(N)N(CCCc3cccnc3)C2=O)cc1` (stereo not drawn) yielded an IC50 of 0.67 µM.
`COc1ccc2nccc([C@@H](O)CN3CCC(NCCNc4ccccn4)CC3)c2c1` gave an IC50 of 0.74 µM.
With `CCOC(=O)c1[nH]c(-c2ccc(Cl)cc2)nc1NC(=S)NCCCN1CCOCC1` the IC50 was 0.87 µM.
For `COc1cc(OC)cc(-c2nn(-c3ccc([N+](=O)[O-])cc3Cl)c(=S)n2Cc2ccco2)c1`, the IC50 was 0.84 µM.
Compound `CN(C(=O)/C=C/c1ccccc1F)C1CCN(CCCCCNC(=O)/C=C/c2ccc(Cl)c(Cl)c2)CC1` has an IC50 of 0.51 µM.
`COc1cc2nc(NCc3ccc(S(N)(=O)=O)cc3)nc(Nc3ccc(Oc4ccccc4)cc3)c2cc1OC` gave an IC50 of 0.44 µM.
`COc1ccc2ncc(Cl)c(CCN3CC[C@@H](CNCc4cc5c(cn4)OCS5)C3)c2n1` was tested, and the IC50 was 0.81 µM.
In the case of `COCCOc1cc(C)c(C2CCN(CCCCNC(=O)c3ccc(NC(=O)c4ccc(Cl)cc4)cc3)CC2)cc1C`, the IC50 is reported as 0.95 µM.
`Nc1c2c(nc3ccc(Oc4ccc(Cl)cc4)cc13)CCCC2` gave an IC50 of 0.97 µM.
`Cc1ccc(OC2CCN(CCCCC3(C)C(=O)Nc4ccccc43)CC2)cc1` (stereo not drawn) was tested, and the IC50 was 0.74 µM.
`Cc1cc(N(C)C)nc(Nc2ccc(NC(=O)CCc3ccccc3)cc2)n1` was tested, and the IC50 was 0.85 µM.
Work on `CN(C)c1ccc(CN2CCC(NC(=O)c3ccc(-c4ccccc4Cl)s3)CC2)cc1` yielded an IC50 of 0.9 µM.
With `CC1(C)N=C(N)N=C(N)C1c1ccc(Cl)cc1` (stereo not drawn) the IC50 was 0.26 µM.
Work on `COc1ccc2nccc(N3CCC(NCCNCc4ccc5c(n4)NC(=O)CO5)C3)c2n1` (stereo not drawn) yielded an IC50 of 0.86 µM.
In the case of `COc1ccccc1C1CC(c2ccc(C)cc2)=NN1C(=O)c1ccccc1` (stereo not drawn), the IC50 is reported as 0.89 µM.
For `CCOC(=O)C1=C(C)NC(Cn2ccnc2)=C(C(=O)OCC)C1c1ccc(C(C)(C)C)cc1` (stereo not drawn), the IC50 was 0.81 µM.
Work on `CC(C)[C@H]1C(=O)N(S(C)(=O)=O)[C@H]2CCN(C(=O)c3ccc(CN4CCCCC4)c([N+](=O)[O-])c3)[C@H]12` yielded an IC50 of 0.62 µM.
`O=C(CN1CCC2(CCC1=O)CC(=O)c1ccccc1O2)NCCN1CCOCC1` (stereo not drawn) gave an IC50 of 0.22 µM.
`Cc1cccc2[nH]c(-c3ccc(-c4cccc(NC(=O)CCc5cnc[nH]5)c4)cc3)nc12` showed an IC50 of 0.41 µM.
`CCN1CCC(NCc2ccc(-c3ccc(Cl)cc3)cc2)CC1` showed an IC50 of 1.02 µM.
Compound `CC1CCc2sc(-c3nnc(SC(C)C(=O)NC4CC4)o3)cc2C1` (stereo not drawn) has an IC50 of 1.21 µM.
Work on `CCOc1cc(C(=O)NC2CCN(Cc3ccccc3)CC2)ccc1-c1nc2ccc(Cl)cc2[nH]1` yielded an IC50 of 0.43 µM.
`COc1cc(NC(=O)CCCCCCCN2CCN(C)CC2)c2ncccc2c1` gave an IC50 of 0.61 µM.
For `CC(=O)Nc1ccc(S(=O)(=O)Nc2ccc(Nc3nc(C)cc(N(C)C)n3)cc2)cc1`, the IC50 was 1.16 µM.
`O=C(COc1ccccc1Cl)N1CCc2cc3nccc(N4CCN5CCC[C@H]5C4)c3cc21` showed an IC50 of 0.74 µM.
`O=C(Nc1ccc2ccccc2c1)N1CCC(NCc2cccc([N+](=O)[O-])c2)CC1` showed an IC50 of 0.86 µM.
With `Cc1ccc(F)cc1S(=O)(=O)NCC(C)c1ccc(NC(=O)Nc2cccc(F)c2)cc1` (stereo not drawn) the IC50 was 0.97 µM.
For `COc1cccc(-c2ccc(O)c(CNCCc3cccc(F)c3)c2)n1`, the IC50 was 0.91 µM.
`N=c1c2c(n(Cc3ccccc3)c3c1CCC3)CCCC2` showed an IC50 of 0.87 µM.
Work on `COc1cc2ncnc(Nc3ccc(OCc4ccccc4Br)c(OC)c3)c2cc1OC` yielded an IC50 of 0.43 µM.
Compound `O=C(Cc1ccc(Cl)cc1)Nc1cc(Cl)ccc1Cn1cnc(N2CCNCC2)cc1=O` has an IC50 of 1 µM.
Compound `O=C(NCCc1ccc(Cl)c(Cl)c1)[C@@H]1CCCN1C(=O)c1ccc(O)c(-c2ccc(Cl)c(Cl)c2)c1` has an IC50 of 0.55 µM.
`CC(C)CN1CCC(N(C)c2cc(NC(=O)c3cccc(F)c3)ccn2)CC1` was tested, and the IC50 was 0.85 µM.
Compound `CSC1=NC(=Nc2c(C)cccc2C)C2(CCCCC2)N1c1ccccc1Cl` has an IC50 of 0.82 µM.
`Cc1cc(NC(=O)Nc2ccc(Cl)cc2F)c2ccccc2n1` gave an IC50 of 0.55 µM.
`O=C(Nc1ccc2c(c1)CCC2)c1ccc(N2CCN(c3ccncc3)CC2)cc1` was tested, and the IC50 was 1.13 µM.
In the case of `CCC(NC[C@@H](O)[C@H](Cc1ccccc1)NC(=O)c1cc(C2CCCC2)cc(N2CCCC2=O)c1)c1cccc(Cl)c1` (stereo partly drawn), the IC50 is reported as 0.04 µM.
`O=C(CCc1ccccc1)NC(c1ccc(Cl)cc1)c1ccc2cccnc2c1O` (stereo not drawn) was tested, and the IC50 was 0.85 µM.
Work on `CCc1ccc(Cc2cnc3nc(N)nc(N)c3c2C)cc1` yielded an IC50 of 0.2 µM.
`CC(C)(C)Nc1cc(C(=O)N[C@@H](Cc2ccccc2)[C@H](O)CNC2CCOCC2)cc(N2CCCCS2(=O)=O)c1` gave an IC50 of 0.15 µM.
Compound `COc1ccc2c(=O)c(I)c(C)[nH]c2c1` has an IC50 of 0.44 µM.
`CN(Cc1ccccc1)C1CCCN(c2cc(NC(=O)c3cccs3)ccn2)C1` (stereo not drawn) was tested, and the IC50 was 1.13 µM.
`Nc1nc(N)c2c(ccc3nn(S(=O)(=O)N4CCCC4)cc32)n1` showed an IC50 of 0.1 µM.

— PubChem BioAssay AID2305 (GlaxoSmithKline (GSK), 2010)
